Results as given in the supplement of paper PMC10307832.

Assays:
Assay in all cases: relative viability (nuclei count vs DMSO), 5 days (fraction); higher = more cells survive
[1] = compound: CC1=CC(=NN1)NC2=CC(=NC(=N2)/C=C/C3=CC=CC=C3)N4CCN(CC4)C + NC(=O)Nc1cc(-c2cccc(F)c2)sc1C(=O)N[C@H]1CCCNC1 [AZD7762] (partner 0.2 µM)
In short: (§1)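 Values are medians from duplicate plates. Each reflects relative viability, defined as the nuclei count of treated wells over that of vehicle wells. Lung cancer cell lines in 1536-well plates were pin-tool dosed one day after seeding with one drug alone or with a fixed anchor-drug dose plus five library-drug doses (not always all listed) in √10 steps, then fixed, stained and imaged at 4× after 5 days.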

[2] = compound: CC1=CC(=NN1)NC2=CC(=NC(=N2)/C=C/C3=CC=CC=C3)N4CCN(CC4)C + CC(=O)c1c(C)c2cnc(Nc3ccc(N4CCNCC4)cn3)nc2n(C2CCCC2)c1=O [Palbociclib] (partner 0.5 µM)
In short: as §1

[3] = compound: CC1=CC(=NN1)NC2=CC(=NC(=N2)/C=C/C3=CC=CC=C3)N4CCN(CC4)C + Nc1ncn([C@H]2C[C@H](O)[C@@H](CO)O2)c(=O)n1 [Decitabine] (partner 2 µM)
In short: as §1

Obatoclax + Decitabine = compound: COC1=CC(c2cc3ccccc3[nH]2)=N/C1=C\c1[nH]c(C)cc1C [Obatoclax] + Nc1ncn([C@H]2C[C@H](O)[C@@H](CO)O2)c(=O)n1 [Decitabine] (partner 2 µM)
In short: as §1

Q: Which results are given for NCI-H23?
A: relative viability ([1]; first compound 0.08 µM): 0.246; relative viability ([1]; first compound 0.253 µM): 0.186; relative viability ([1]; first compound 0.8 µM): 0.23; relative viability ([1]; first compound 2.53 µM): 0.094; relative viability ([1]; first compound 8 µM): 0.101; relative viability ([2]; first compound 0.08 µM): 0.483; relative viability ([2]; first compound 0.253 µM): 0.505; relative viability ([2]; first compound 0.8 µM): 0.409; relative viability ([2]; first compound 2.53 µM): 0.158; relative viability ([2]; first compound 8 µM): 0.123; relative viability ([3]; first compound 0.08 µM): 0.302; relative viability ([3]; first compound 0.253 µM): 0.326; relative viability ([3]; first compound 0.8 µM): 0.29; relative viability ([3]; first compound 2.53 µM): 0.177; relative viability ([3]; first compound 8 µM): 0.141; relative viability (Obatoclax + Decitabine; first compound 0.01 µM): 0.328; relative viability (Obatoclax + Decitabine; first compound 0.03162 µM): 0.272; relative viability (Obatoclax + Decitabine; first compound 0.1 µM): 0.369; relative viability (Obatoclax + Decitabine; first compound 0.3162 µM): 0.286; relative viability (Obatoclax + Decitabine; first compound 1 µM): 0.349

Q: Which results are given for A-427?
A: relative viability ([1]; first compound 0.08 µM): 0.83; relative viability ([1]; first compound 0.253 µM): 0.683; relative viability ([1]; first compound 0.8 µM): 0.713; relative viability ([1]; first compound 2.53 µM): 0.238; relative viability ([1]; first compound 8 µM): 0.163; relative viability ([2]; first compound 0.08 µM): 0.58; relative viability ([2]; first compound 0.253 µM): 0.518; relative viability ([2]; first compound 0.8 µM): 0.51; relative viability ([2]; first compound 2.53 µM): 0.454; relative viability ([2]; first compound 8 µM): 0.201; relative viability ([3]; first compound 0.08 µM): 0.603; relative viability ([3]; first compound 0.253 µM): 0.582; relative viability ([3]; first compound 0.8 µM): 0.568; relative viability ([3]; first compound 2.53 µM): 0.489; relative viability ([3]; first compound 8 µM): 0.213; relative viability (Obatoclax + Decitabine; first compound 0.01 µM): 0.528; relative viability (Obatoclax + Decitabine; first compound 0.03162 µM): 0.525; relative viability (Obatoclax + Decitabine; first compound 0.1 µM): 0.491; relative viability (Obatoclax + Decitabine; first compound 0.3162 µM): 0.614; relative viability (Obatoclax + Decitabine; first compound 1 µM): 0.504

Q: With ABC-1 as the cell line, how does the relative viability ([1]; first compound 0.253 µM) read?
A: The relative viability was 1.16.

Q: And the relative viability ([1]; first compound 0.8 µM)?
A: Its relative viability is 0.795.

Q: And the relative viability ([1]; first compound 2.53 µM)?
A: Its relative viability is 0.907.

Q: What about the relative viability ([1]; first compound 8 µM) of the same cell line?
A: The relative viability was 0.175.

Q: And the relative viability ([2]; first compound 0.08 µM)?
A: Its relative viability is 0.668.

Q: What about the relative viability ([2]; first compound 0.253 µM) of the same cell line?
A: The relative viability was 0.633.

Q: What about the relative viability ([2]; first compound 0.8 µM) of the same cell line?
A: The relative viability was 0.934.

Q: And the relative viability ([2]; first compound 2.53 µM)?
A: Its relative viability is 0.636.

Q: What about the relative viability ([2]; first compound 8 µM) of the same cell line?
A: The relative viability was 0.227.

Q: And the relative viability ([3]; first compound 0.08 µM)?
A: The relative viability was 1.02.

Q: And the relative viability ([3]; first compound 0.253 µM)?
A: The relative viability was 0.954.

Q: What about the relative viability ([3]; first compound 0.8 µM) of the same cell line?
A: The relative viability was 1.1.

Q: What about the relative viability ([3]; first compound 2.53 µM) of the same cell line?
A: Its relative viability is 0.811.

Q: What about the relative viability ([3]; first compound 8 µM) of the same cell line?
A: Its relative viability is 0.268.

Q: And the relative viability (Obatoclax + Decitabine; first compound 0.01 µM)?
A: Its relative viability is 1.38.

Q: And the relative viability (Obatoclax + Decitabine; first compound 0.03162 µM)?
A: Its relative viability is 1.31.

Q: And the relative viability (Obatoclax + Decitabine; first compound 0.1 µM)?
A: Its relative viability is 0.999.

Q: And the relative viability (Obatoclax + Decitabine; first compound 0.3162 µM)?
A: Its relative viability is 1.17.

Q: What about the relative viability (Obatoclax + Decitabine; first compound 1 µM) of the same cell line?
A: Its relative viability is 1.07.

Q: NCI-H322M was tested. Which relative viability ([1]; first compound 0.08 µM) did it give?
A: Its relative viability is 0.555.

Q: What about the relative viability ([1]; first compound 0.253 µM) of the same cell line?
A: The relative viability was 0.6.

Q: What about the relative viability ([1]; first compound 0.8 µM) of the same cell line?
A: Its relative viability is 0.615.

Q: What about the relative viability ([1]; first compound 2.53 µM) of the same cell line?
A: The relative viability was 0.403.

Q: And the relative viability ([1]; first compound 8 µM)?
A: The relative viability was 0.302.

Q: And the relative viability ([2]; first compound 0.08 µM)?
A: The relative viability was 0.444.

Q: And the relative viability ([2]; first compound 0.253 µM)?
A: The relative viability was 0.572.

Q: What about the relative viability ([2]; first compound 0.8 µM) of the same cell line?
A: The relative viability was 0.458.

Q: And the relative viability ([2]; first compound 2.53 µM)?
A: The relative viability was 0.336.

Q: What about the relative viability ([2]; first compound 8 µM) of the same cell line?
A: Its relative viability is 0.287.

Q: And the relative viability ([3]; first compound 0.08 µM)?
A: The relative viability was 0.82.

Q: What about the relative viability ([3]; first compound 0.253 µM) of the same cell line?
A: The relative viability was 0.719.

Q: And the relative viability ([3]; first compound 0.8 µM)?
A: The relative viability was 0.675.

Q: And the relative viability ([3]; first compound 2.53 µM)?
A: Its relative viability is 0.587.

Q: What about the relative viability ([3]; first compound 8 µM) of the same cell line?
A: Its relative viability is 0.298.

Q: And the relative viability (Obatoclax + Decitabine; first compound 0.01 µM)?
A: The relative viability was 0.701.

Q: And the relative viability (Obatoclax + Decitabine; first compound 0.03162 µM)?
A: Its relative viability is 0.687.

Q: And the relative viability (Obatoclax + Decitabine; first compound 0.1 µM)?
A: The relative viability was 0.856.

Q: And the relative viability (Obatoclax + Decitabine; first compound 0.3162 µM)?
A: The relative viability was 0.818.

Q: And the relative viability (Obatoclax + Decitabine; first compound 1 µM)?
A: The relative viability was 0.662.
